{
  "source": "paper PMC10762078",
  "about": "“Role of UPF1-LIN28A interaction during early differentiation of pluripotent stem cells” (Nature Communications, 2024)",
  "tested_on": "lineage markers in CHA15 cells",
  "experiment": "RNA-seq of CHA15 cells during ectodermal, mesodermal and endodermal differentiation with CPP-peptides (Fig. 7a)",
  "type": "cell-based, Homo sapiens",
  "conditions": "CHA15, 5 days",
  "description": "For CPP-conjugated peptide delivery, HeLa, 293T, and PA-1 cells were incubated with CPP-conjugated peptides or CPP-FITC at 2 μM in DMEM with 10% FBS for 12 h a day before cell harvest. hPSCs were treated with CPP-conjugated peptides at 10 μM in mTeSR Plus Medium, and the peptide-containing medium was changed every day over 10 days. The ROCK inhibitor (Tocris Bioscience, Y-27632) treated-hPSCs were dissociated into single cells using Accutase (Merck, SCR005) and differentiated into ectoderm, mesoderm, and endoderm using the STEMdiff Trilineage Differentiation Kit ([…] Technologies, 05230) following the manufacturer’s protocol. Differentiated cells treated with CPP-conjugated peptides were analysed at 0, 3, and 5 days for ectoderm and endoderm, and at 0, 3, and 4 days for mesoderm.\nTotal RNA concentration was calculated using Quant-IT RiboGreen (Invitrogen, R11490). […] The libraries were quantified using the KAPA Library Quantification Kits for Illumina Sequencing platforms according to the qPCR Quantification Protocol Guide (KAPA BIOSYSTEMS, KR0405) and qualified using the TapeStation D1000 ScreenTape (Agilent). […]\nWe pre-processed the raw reads from the sequencer to remove low-quality reads and adapter sequences before analysis and aligned the processed reads to Homo sapiens (GRCh37) using HISAT v2.1.0[52]. […]",
  "data": [
    {"sequence": "KKKWCRKKKSSADEKRYRALKRTAERELLMNA [CPP-P8, CPP conjugated to P8]", "values": [
      {"measurement": "ectodermal marker levels", "value": "overall reduced the levels of its marker, in contrast to mesodermal and endodermal differentiation"}
    ]}
  ]
}
